Results on 1 molecule are retold here after article PMC8672821, “Investigating 3,3-diaryloxetanes as potential bioisosteres through matched molecular pair analysis” (RSC Medicinal Chemistry, 2021).

Series [1] in a line: sfLogD.
A short description of series [2]: RRCK passive permeability assay. It counts as in vitro ADME, canine. To be noted: dog, MDCK; read-out: RRCK cell permeability. How it is done: Aqueous buffer preparation: pH 3: 50 µL of 1N hydrochloric acid was added to 500 mL of deionized water.
The solution was titrated with 1N hydrochloric acid to pH 3, and back titrated with 1N sodium hydroxide. pH 7.4: 100 mM sodium phosphate buffer is made by adding 56.4 g of dibasic sodium phosphate and 10.3 g of monobasic sodium phosphate to 4 L of deionized water. 250 µL of 100 mM sodium phosphate buffer was diluted with 250 µL of deionized water. The solution was titrated with 1N hydrochloric acid to pH 7.4, and back titrated with 1N sodium hydroxide. pH 10: Fisher Scientific pH 10 buffer (SB116-500) containing potassium hydroxide, potassium carbonate, and potassium borate. pH 12.8: 30 mL of 1N NaOH was added to 200 mL of deionized water. The solution was titrated with 1N sodium hydroxide to pH 12.8, and back titrated with 1N hydrochloric acid.
RRCK: Passive permeability assay were carried out using low‐efflux MDCKII cells (Madin–Darby canine kidney cell line) also called Ralph Russ Canine Kidney cell (RRCK).11

Series [3] is described as follows: elogD, automated reversed phase-HPLC logD (pH 7.4). To be noted: Supelcosil LC-ABZ column. The class given is physicochemical. How it is done:
elogD: An automated reversed phase-HPLC method developed by Lombardo et al. was used for logD (pH 7.4) measurements. All the chromatographic runs were performed on a HP -1100 HPLC ChemStation at the ambient temperature. The HPLC columns used were Supelcosil LC-ABZ, 5 µm, 4.6 mm × 50 mm. A diode array detector was used to monitor signals at 210, 225, 245, and 310 nm. The mobile phase consisted of 15−75% of A and 85−25% of B.
Mobile phase A: methanol with addition of 0.25% 1-octanol.
Mobile phase B: 20 mM of MOPS (morpholine−propane−sulfonic acid) buffer prepared in octanol saturated water and 0.25% of n-decylamine.
Samples were prepared in 1:1 mixture of methanol/water at 100 μg/mL concentration.
The retention of each compound is obtained at three different concentrations of methanol in the mobile phase and extrapolated to 0% methanol (100% water). […]

A word on the logD: it is lipophilicity at a set pH, counting ionised and neutral species. Lower therefore signals a more hydrophilic compound. Usually melting point stands for the temperature, or range, at which the solid turns liquid. What is called chromatographic logD is lipophilicity estimated from chromatographic retention. Lower therefore signals lower lipophilicity. Take `Cc1cc(C2(c3cn(C)c4ccccc34)CCC2)ccc1O` [5e]: the melting point lay in the range of 120 to 121 °C. In series [1], this molecule yielded a logD of 4.4. Also, the Papp in series [2] came to 0.1 ×10⁻⁶ cm/s. This molecule registered a chromatographic logD in series [3] of 5.4.
